Experimental data: US9061030B2, “sGC stimulators” (IRONWOOD PHARMACEUTICALS, INC., priority 2010, dated 2015)

How the values were obtained:
[1] = biological target: T1, soluble guanylate cyclase (sGC) (Homo sapiens, UniProt Q02108+Q02153); assay: sGC-HEK-cGMP assay; assay type: cell-based; settings: HEK293 cells, 10 μM SNP, percentage of sGC activity obtained with positive control BAY 41-2272 (= 100%); for Emax at 10 µM: compound at 10 μM; for Emax at 30 µM: compound at 30 μM
T1 construct: endogenously expressing soluble guanylate cyclase (sGC); endogenous in cells; host or cells: HEK293
T1 sequence (Q02153 1-619): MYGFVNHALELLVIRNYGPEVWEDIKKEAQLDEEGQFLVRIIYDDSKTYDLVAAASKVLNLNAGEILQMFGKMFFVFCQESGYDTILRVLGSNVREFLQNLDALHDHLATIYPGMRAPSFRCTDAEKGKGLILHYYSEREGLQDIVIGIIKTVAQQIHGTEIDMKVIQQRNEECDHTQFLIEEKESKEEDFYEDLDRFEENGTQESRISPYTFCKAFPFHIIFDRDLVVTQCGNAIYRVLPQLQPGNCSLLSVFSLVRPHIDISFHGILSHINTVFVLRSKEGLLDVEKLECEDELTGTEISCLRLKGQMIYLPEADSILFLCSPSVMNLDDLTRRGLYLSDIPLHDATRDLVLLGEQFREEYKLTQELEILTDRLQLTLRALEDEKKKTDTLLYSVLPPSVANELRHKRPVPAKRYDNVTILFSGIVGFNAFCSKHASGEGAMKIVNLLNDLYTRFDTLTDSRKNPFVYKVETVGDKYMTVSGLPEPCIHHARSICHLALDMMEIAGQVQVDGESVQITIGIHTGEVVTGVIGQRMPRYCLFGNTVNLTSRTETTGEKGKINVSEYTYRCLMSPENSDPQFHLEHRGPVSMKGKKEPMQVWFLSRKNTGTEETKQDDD
T1 sequence (Q02108 1-690): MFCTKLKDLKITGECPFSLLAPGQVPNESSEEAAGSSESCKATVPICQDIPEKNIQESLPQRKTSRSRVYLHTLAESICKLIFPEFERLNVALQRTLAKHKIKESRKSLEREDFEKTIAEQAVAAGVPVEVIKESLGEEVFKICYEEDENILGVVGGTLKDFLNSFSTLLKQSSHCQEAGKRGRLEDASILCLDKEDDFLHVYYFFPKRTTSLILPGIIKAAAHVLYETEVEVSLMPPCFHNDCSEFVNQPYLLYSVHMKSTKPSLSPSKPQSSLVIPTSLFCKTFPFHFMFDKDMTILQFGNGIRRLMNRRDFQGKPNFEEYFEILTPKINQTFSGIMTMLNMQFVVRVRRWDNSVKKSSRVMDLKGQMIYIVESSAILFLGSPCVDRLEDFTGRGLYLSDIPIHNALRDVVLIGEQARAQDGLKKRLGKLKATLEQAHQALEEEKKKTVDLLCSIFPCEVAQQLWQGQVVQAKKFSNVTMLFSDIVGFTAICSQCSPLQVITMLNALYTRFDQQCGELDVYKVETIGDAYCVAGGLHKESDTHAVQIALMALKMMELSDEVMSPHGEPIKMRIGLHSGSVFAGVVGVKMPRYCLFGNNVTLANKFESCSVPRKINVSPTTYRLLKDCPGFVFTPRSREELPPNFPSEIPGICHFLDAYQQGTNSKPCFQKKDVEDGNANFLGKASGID
Method: Human embryonic kidney cells (HEK293), endogenously expressing soluble guanylate cyclase (sGC), were used to evaluate the activity of the test compounds. Compounds stimulating the sGC receptor should cause an increase in the intracellular concentration of cGMP. HEK 293 cells were seeded in Dulbecco's Modification of Eagle's Medium supplemented with fetal bovine serum (10% final) and L-glutamine (2 mM final) in a 200 μL volume at a density of 1×10^5 cells/well in a poly-D-lysine coated 96 well flat bottom plate and grown overnight at 37° C. Medium was aspirated and cells were washed with 1× Hank's Buffered Saline Salt Solution (200 μL). Cells were then incubated for 15 minutes at 37° C. with 0.5 mM 3-isobutyl-1-methylxanthine (200 μL). Test article was then added to the assay mixture (2 μL) and incubated in the presence of 10 μM Sodium Nitroprusside (SNP) at 37° C. for 10 minutes. After the 10 minute incubation, the assay mixture was aspirated and 0.1M HCl (200 μL) was added to the cells. The plate was incubated at 4° C. for 30 minutes in the 0.1M HCl to stop the reaction and lysed the cells. The plates were then centrifuged at 1,200 g for 5 minutes at room temperature. Supernatants were collected and transferred to a new flat bottom 96 well plate for analysis. Vehicle controls were carried out using DMSO (1%). A known sGC stimulator, BAY 41-2272, was used as the positive control.
Samples were diluted with an equal volume of 1 M Ammonium Acetate (pH 7) to neutralize samples for better chromatography. A 2×cGMP standard curve was prepared in 0.1 M HCl and then diluted with an equal volume of 1 M Ammonium Acetate, with the following final concentrations in nM: 1024, 512, 256, 128, 64, 32, 16, 8, 4, 2, 1.cGMP concentrations were determined from each sample using the LC/MS conditions (Table 2 below) and calculated standard curve. EC50 values were calculated from concentration-response curves generated with GraphPad Prism Software.
The biological activities of some of the compounds according to Formula IA or Formula IB determined with the sGC-HEK assay are summarized in Table 3 below.

[2] = biological target: T2, Human soluble guanylate cyclase enzyme (hsGC) (Homo sapiens, UniProt Q02108+Q02153); assay: Purified human sGC enzyme activity assay (with or without SNP); assay type: biochemical; settings: 30 μM compound; for sGC Enzyme Activity Increase at 30 μM with SNP: 1 μM SNP, specific activity vs DMSO and SNP; for sGC Enzyme Activity Increase at 30 μM without SNP: specific activity vs DMSO control
T2 construct: purchased Enzo Inc. ALX-201-177
T2 sequence (Q02153 1-619): T1 sequence (Q02153 1-619)
T2 sequence (Q02108 1-690): T1 sequence (Q02108 1-690)
Method: Human soluble guanylate cyclase enzyme (hsGC) obtained from Enzo Inc. (P/N: ALX-201-177) was used to evaluate the activity of test compounds. The assay reactions contained 0.1 M Tris (pH 8.0), 0.5 mg/mL BSA (pH 8.0), 2 mM DTT, 2 mM MgCl2, 300 μM GTP, 1 mM 3-isobutyl-1-methylxanthine (IBMX) and 5 ng human soluble guanylate cyclase enzyme. Test compounds in DMSO were then added (2 μL, 10 or 30 μM final concentration) and incubated (200 μL, 96-well plate format) at 37° C. for 30 minutes. The controls were carried out using 2 μL DMSO. After the 30 minute incubation, the reaction was stopped with the addition of 200 μL of cold methanol. The plate was then centrifuged at 3,200 rpm for 10 minutes at room temperature. Supernatants (200 μL) were collected and transferred to a new 96 well plate for analysis.
An 8 point cGMP (Sigma-Aldrich P/N: G6129) standard curve was prepared in assay buffer ranging from 0.156-20 μM. Samples for the cGMP standard curve were then diluted with an equal volume of methanol resulting in final cGMP concentrations of 0.078-10 μM.
The cGMP standard curve was generated using GraphPad Prism Software.
Calculations: Specific Activity was determined by the amount of cGMP formed (nmoles) per mg of sGC per min. Enzyme activity “fold-change” was calculated by dividing the Specific Activity for a test compound by the Specific Activity of DMSO control.
The enzymatic activity fold-change of the purified human sGC enzyme determined in the presence of each of the test compounds individually at 10 or 30 μm without the addition of sodium nitroprusside (SNP), a nitric oxide donor, is presented in Table 5.
Enzyme assays were also performed as described above, but in the presence of 1 μM sodium nitroprusside (SNP). Enzymatic activity fold-changes are reported for selected test compounds in the presence of both SNP and the test compound. These were calculated by dividing the specific activity (activity increase) for the test compound dissolved in DMSO and SNP over the specific activity for the mixture of DMSO and SNP.

Structure (SMILES) | Emax at 10 µM [1] [%] | Emax at 30 µM [1] [%] | sGC Enzyme Activity Increase at 30 μM with SNP [2] | sGC Enzyme Activity Increase at 30 μM without SNP [2]
Fc1ccccc1Cn1nc(-c2nccs2)nc1-c1cocn1 [Compound I-63] | 60 to 80 | 20 to 40 | D (D = 5 to <10 fold increase) | B (B = 1 to <2 fold increase)
Fc1ccccc1Cn1nc(-c2cc(Br)ccn2)nc1-c1cocn1 [Compound I-54, 4-(3-(4-bromopyridin-2-yl)-1-(2-fluorobenzyl)-1H-1,2,4-triazol-5-yl)oxazole] | 20 to 40 | 40 to 60 | D (D = 5 to <10 fold increase) | C (C = 2 to <5 fold increase)
Fc1ccccc1Cn1nc(-c2cocn2)nc1-c1ccccn1 [Compound I-13, 4-(1-(2-fluorobenzyl)-5-(pyridin-2-yl)-1H-1,2,4-triazol-3-yl)oxazole] | 0 to 5 | 0 to 5 | B (B = 1 to <2 fold increase) | C (C = 2 to <5 fold increase)
Fc1ccccc1Cn1nc(-c2ncco2)nc1-c1ncccn1 [Compound I-8] | 0 to 5 | 0 to 5 | B (B = 1 to <2 fold increase) | C (C = 2 to <5 fold increase)
Fc1ccccc1Cn1nc(-c2ncccn2)nc1-c1ccccn1 [Compound I-32] | 0 to 5 | 10 to 20 | C (C = 2 to <5 fold increase) | C (C = 2 to <5 fold increase)
Fc1ccccc1Cn1nc(-c2cscn2)nc1-c1cnccn1 [Compound I-55] | 0 to 5 | 5 to 10 | C (C = 2 to <5 fold increase) | B (B = 1 to <2 fold increase)
NC(=O)c1ccnc(-c2nc(-c3nccs3)n(Cc3ccccc3F)n2)c1 [Compound I-64, 2-(1-(2-fluorobenzyl)-5-(thiazol-2-yl)-1H-1,2,4-triazol-3-yl)isonicotinamide] | 10 to 20 | 5 to 10 | – | –
Fc1ccccc1Cn1nc(-c2ccccn2)nc1-c1ccon1 [Compound I-58, 3-(1-(2-fluorobenzyl)-3-(pyridin-2-yl)-1H-1,2,4-triazol-5-yl)isoxazole] | 40 to 60 | 60 to 80 | D (D = 5 to <10 fold increase) | C (C = 2 to <5 fold increase)
Fc1ccccc1Cn1nc(-c2cocn2)nc1-c1nccs1 [Compound I-62] | 10 to 20 | 5 to 10 | C (C = 2 to <5 fold increase) | A (A = no increase to <1 fold increase)
Nc1ccnc(-c2nc(-c3cocn3)n(Cc3ccccc3F)n2)c1 [Compound I-66, 2-(1-(2-fluorobenzyl)-5-(oxazol-4-yl)-1H-1,2,4-triazol-3-yl)pyridin-4-amine] | 40 to 60 | 40 to 60 | – | –

Now from value to compound:

Emax at 10 µM [1] [%] | Emax at 30 µM [1] [%] | sGC Enzyme Activity Increase at 30 μM with SNP [2] | sGC Enzyme Activity Increase at 30 μM without SNP [2] | Structure (SMILES)
0 to 5 | 5 to 10 | B (B = 1 to <2 fold increase) | B (B = 1 to <2 fold increase) | Fc1ccccc1Cn1nc(-c2ncco2)nc1-c1ccccn1 [Compound I-7]
0 to 5 | 0 to 5 | C (C = 2 to <5 fold increase) | B (B = 1 to <2 fold increase) | COC(=O)c1nc(-c2ccccn2)nn1Cc1ccccc1F [Compound I-35, methyl 1-(2-fluorobenzyl)-3-(pyridin-2-yl)-1H-1,2,4-triazole-5-carboxylate]
10 to 20 | 20 to 40 | D (D = 5 to <10 fold increase) | C (C = 2 to <5 fold increase) | Fc1ccccc1Cn1nc(-c2nccs2)nc1-c1cc(Br)ccn1 [Compound I-37, 2-(5-(4-bromopyridin-2-yl)-1-(2-fluorobenzyl)-1H-1,2,4-triazol-3-yl)thiazole]
5 to 10 | 10 to 20 | C (C = 2 to <5 fold increase) | C (C = 2 to <5 fold increase) | Fc1ccccc1Cn1nc(-c2ccccn2)nc1C1CCC1 [Compound I-24]
0 to 5 | 0 to 5 | B (B = 1 to <2 fold increase) | B (B = 1 to <2 fold increase) | Fc1ccccc1Cn1nc(-c2cc(Br)ccn2)nc1-c1nccs1 [Compound I-36, 2-(3-(4-bromopyridin-2-yl)-1-(2-fluorobenzyl)-1H-1,2,4-triazol-5-yl)thiazole]
0 to 5 | 0 to 5 | B (B = 1 to <2 fold increase) | B (B = 1 to <2 fold increase) | Fc1ccccc1Cn1nc(-c2ncccn2)nc1-c1ccccc1 [Compound I-27]
